Reference: patent publication US20150242566A1, “Methods and Systems for Designing Animal Food Compositions” (Hill's Pet Nutrition, Inc., priority 2005, published 2015)

System: gene expression in four canine cell lines: CCL34 (kidney), CRL1430 (thymus), CCL183 (bone), CTAC (thyroid)
Test: Effect of test substances or ingredients on gene expression in canine cell lines (Affymetrix Canine-1 and Canine-2 gene chips)
Type: cell-based
Details: for Direction of gene expression, probe 1605486_at: pyruvate dehydrogenase kinase 4 mRNA; for Direction of gene expression, probe 1605486_at / Direction of gene expression, probe 6282824_at: two concentrations per ingredient (Table 6), vs solvent control; for Direction of gene expression, probe 6282824_at: Canis familiaris carnitine palmitoyl transferase I isoform (CPT1) mRNA, human BC000185; for Direction of gene expression, probe 6283403_at: Sus scrofa carnitine palmitoyltransferase I mRNA, human AK172798
Excerpt: Cells cultured from mammalian cell lines are used to isolate good quality RNA which is then used for future downstream genomic analysis. All work related to the culturing of the cells is to be done under strict aseptic conditions. Procedure: Removing Cells from the OptiCell Chamber (proceed one OptiCell at a time). Check the cells under a microscope to ensure that the cells are alive before isolating RNA. Remove and discard the cell culture medium. Using the OptiCell knife cut away the top membrane exposing the cells on the lower membrane. Wash the membrane to which the cells are attached three times with 1X PBS. Pipette 600 uL of the Buffer RLT solution (containing R-Mercaptoethanol) onto the center of the membrane to which the cells are attached. Using the cell scraper, gently spread the Buffer RLT over the entire surface of the membrane, and then collect the liquid in one corner. Pipette off the entire volume of Buffer RLT and place into a QIAshredder spin column. RNA Isolation: Centrifuge the QIAshredder spin columns at 14,000 rpm for 2 minutes. Discard the spin column but keep the collection tube and its contents. Add 600 uL of 70% ethanol to the collection tube and mix well by pipetting (the total volume now=1.2 mL). Transfer 600 uL of the cell lysate to an RNeasy mini column and centrifuge for 15 seconds at 14,000 rpm. Discard the flow through but keep the collection tube and the spin column. Transfer the remaining volume of cell lysate (˜600 uL) to the spin column and repeat the centrifugation. Discard the flow through but keep the collection tube and the spin column. Add 700 uL Buffer RW1 to the spin column. Centrifuge for 15 seconds at 14,000 rpm to wash the column. Discard the flow through and the collection tube. Transfer the spin column to a new 2 mL collection tube and add 500 uL Buffer RPE to the column. Centrifuge for 15 seconds at 14,000 rpm. Discard the flow through, keep the collection tube/column. Add another 500 uL Buffer RPE to the column. Centrifuge for 2 minutes at 14,000 rpm. Transfer the spin column to a 1.5 mL collection tube. […] Store the final RNA at −70° C. Gene expression was analyzed using Affymetrix Canine 1 and Canine 2 GeneChip® Arrays available commercially from Affymetrix, Inc., Santa Clara, Calif. 95051. Total RNA is reverse transcribed into cDNA. The cDNA is used to generate cRNA which is fragmented and used as probes for GeneChip hybridization. The gene chip is washed and the hybridization signal is measured with an Affymetrix laser scanner. The hybridization data is then validated and normalized for further analysis. Procedure: All procedures follow exactly as described in GeneChip Expression Analysis Technical Manual (Affymetrix Copyright 1999-2003). Use 5 microgram of total RNA for the first strand cDNA synthesis. Use either Peltier Thermal Cycler PTC-200 or heat block for temperature control on reactions and probe denaturing. The quality control is performed using RNA […] chips with BioAnalyer 2100. Use 100 Format (Midi Array) for the canine genechip. […] TAGs; ALA: EPA: DHA; linoleic acid; stearic acid (SA), conjugated linoleic acid (CLA), GLA; arachidonic acid; lecithin; vitamin A, vitamin D, vitamin E, vitamin K, riboflavin, niacin, pyridoxine, pantothenic acid, folic acid, biotin vitamin C, catechin, quercetin, theaflavin; ubiquinone: lycopene, lycoxanthin; resveratrol; α-lipoic acid; L-carnitine; D-limonene; glucosamine; S-adenosylmethionine; chitosan, various materials containing one or more of these compounds, and various combination thereof on gene expression in four canine cell lines and appropriate controls. The solvent at the higher of the two concentrations was used as a control. Four canine cell lines are used: CCL34 (kidney), CRL1430 (thymus), CCL183 (bone) (Obtained from The American Tissue Culture Collection) and CTAC (thyroid) (See, Measurement of NK Activity in Effector Cells Purified from Canine Peripheral Lymphocytes. Veterinary Immunology and Immunopathology, 35 (1993) 239-251). […]

CC/C=C\C/C=C\C/C=C\CCCCCCCC(=O)O [ALA, α-linolenic acid]
Direction of gene expression, probe 6282455_at (Canis familiaris type I collagen pre-pro-alpha1(I) chain (COL1A1) mRNA, human AB209597): DOWN (down-regulated if its value is <1/1.5 (for across all 4 cell lines analysis) or <½ (for within cell lines analysis))
Direction of gene expression, probe 1605486_at (human AK096428): UP (up-regulated if it is >1.5 (for across all 4 cell lines analysis) or >2 (for within cell lines analysis))

CCCCC/C=C\C/C=C\C/C=C\C/C=C\CCCC(=O)O [ARA, arachidonic acid]
Direction of gene expression, probe 6282824_at: UP (up-regulated if it is >1.5 (for across all 4 cell lines analysis) or >2 (for within cell lines analysis))
Direction of gene expression, probe 1602749_at (Homo sapiens BAC clone RP11-44D21 from 4, human AC108866): UP (up-regulated if it is >1.5 (for across all 4 cell lines analysis) or >2 (for within cell lines analysis))
Direction of gene expression, probe 6283403_at: UP (up-regulated if it is >1.5 (for across all 4 cell lines analysis) or >2 (for within cell lines analysis))
Direction of gene expression, probe 1605486_at (human AK096428): UP (up-regulated if it is >1.5 (for across all 4 cell lines analysis) or >2 (for within cell lines analysis))

CC/C=C\C/C=C\C/C=C\C/C=C\C/C=C\C/C=C\CCC(=O)O [DHA, docosahexaenoic acid]
Direction of gene expression, probe 6282824_at: UP (up-regulated if it is >1.5 (for across all 4 cell lines analysis) or >2 (for within cell lines analysis))
Direction of gene expression, probe 6287734_at (Canis familiaris similar to Na/Pi cotransporter 4 (LOC478741) mRNA, human BC017952): UP (up-regulated if it is >1.5 (for across all 4 cell lines analysis) or >2 (for within cell lines analysis))
Direction of gene expression, probe 1605486_at (human AK096428): UP (up-regulated if it is >1.5 (for across all 4 cell lines analysis) or >2 (for within cell lines analysis))

CC/C=C\C/C=C\C/C=C\C/C=C\C/C=C\CCCC(=O)O [EPA, eicosapentaenoic acid]
Direction of gene expression, probe 6283403_at: UP (up-regulated if it is >1.5 (for across all 4 cell lines analysis) or >2 (for within cell lines analysis))
Direction of gene expression, probe 1605486_at (human AK096428): UP (up-regulated if it is >1.5 (for across all 4 cell lines analysis) or >2 (for within cell lines analysis))
Direction of gene expression, probe 6283329_at (similar to secreted frizzled-related protein 4, human AC018634): DOWN (down-regulated if its value is <1/1.5 (for across all 4 cell lines analysis) or <½ (for within cell lines analysis))

CCCCC/C=C\C/C=C\CCCCCCCC(=O)O [LA, linoleic acid]
Direction of gene expression, probe 6282385_at (Canis familiaris Na+-dependent glutamate transporter (GLAST) mRNA, human D26443): DOWN (down-regulated if its value is <1/1.5 (for across all 4 cell lines analysis) or <½ (for within cell lines analysis))
Direction of gene expression, probe 6282824_at: UP (up-regulated if it is >1.5 (for across all 4 cell lines analysis) or >2 (for within cell lines analysis))
Direction of gene expression, probe 1605486_at (human AK096428): UP (up-regulated if it is >1.5 (for across all 4 cell lines analysis) or >2 (for within cell lines analysis))

CCCCCCCCCCCCCCCCCC(=O)O [SA, stearic acid]
Direction of gene expression, probe CfaAffx.9845.1.S1_s_at (Canis familiaris similar to leucine rich repeat containing 45 (LOC483375), human NM_144999): UP (up-regulated if it is >1.5 (for across all 4 cell lines analysis) or >2 (for within cell lines analysis))
Direction of gene expression, probe Cfa.2282.1.S1_at (Canis familiaris similar to pyruvate dehydrogenase kinase isoform 4 (LOC482310) mRNA, human AK096428): UP (up-regulated if it is >1.5 (for across all 4 cell lines analysis) or >2 (for within cell lines analysis))
Direction of gene expression, probe Cfa.791.4.A1_at (Canis familiaris similar to ribosomal protein L24, transcript variant 2 (LOC478547), human NM_000986): UP (up-regulated if it is >1.5 (for across all 4 cell lines analysis) or >2 (for within cell lines analysis))

conjugated linoleic acid [CLA]
Direction of gene expression, probe Cfa.10478.1.A1_at (Bos taurus similar to Type II inositol-1,4,5-trisphosphate 5-phosphatase precursor (LOC538291), human AC005691): UP (up-regulated if it is >1.5 (for across all 4 cell lines analysis) or >2 (for within cell lines analysis))
Direction of gene expression, probe Cfa.11267.1.A1_at (Homo sapiens cDNA clone IMAGE: 4456146, human BC024645): DOWN (down-regulated if its value is <1/1.5 (for across all 4 cell lines analysis) or <½ (for within cell lines analysis))
Direction of gene expression, probe Cfa.11358.1.A1_at (Homo sapiens solute carrier family 20 (phosphate transporter), member 2 (SLC20A2) mRNA, human AF170802): UP (up-regulated if it is >1.5 (for across all 4 cell lines analysis) or >2 (for within cell lines analysis))
